Tested on: CD1 female mouse brain lipidome
Assay: Brain-region lipid levels (HPLC/MS/MS lipidomics) 2 h after single i.p. 3 mg/kg CP 55,940 vs vehicle
Format: in vivo
Procedure: The Bloomington Institutional Animal Care and Use Committee of Indiana University reviewed and approved the animal procedures. Female mice from the CD1 strain were utilized to match our study examining THC’s effects on the brain lipidome ([Leishman et al., 2018]). Mice were given a single i.p. injection of either 3 mg/kg CP or 1:1:18 cremophor:ethanol:saline vehicle (please refer to the section “3 mg/kg CP Is Relevant for Synthetic Cannabinoid Abuse and Has Stronger Effects on the Female Mouse Brain Lipidome During Adolescence” for a justification of dose and use of female mice). Three different age groups were given injections: PND 35 and PND 50 adolescents, and adult mice (PND 113). At least eight mice in each age group received CP and at least eight received vehicle. Matching the THC study time course ([Leishman et al., 2018]), mice were sacrificed via rapid decapitation 2 h after injection. Brains were immediately removed and flash-frozen in liquid nitrogen, and then stored at -80°C until dissections were performed. Brains were dissected on an ice-cold dissection plate into the following regions: STR, HIPP, CER, THAL, CTX, HYP, MID, and STEM. These abbreviations for these brain areas will be used exclusively when discussing the results generated by these specific dissections. Each dissected area was immediately placed in liquid nitrogen and then stored at -80°C until used for lipid extraction.
Tissue extracts were performed as previously described ([Bradshaw et al., 2006]; [Stuart et al., 2013]; [Raboune et al., 2014]; [Leishman et al., 2016a],[b], [2017], [2018]). First, samples were shock frozen in liquid nitrogen, weighed, and transferred to a centrifuge tube. The mass of the largest sample was multiplied by 50 to determine how many milliliters of HPLC-grade methanol (Fisher, Fair Lawn, NJ, United States) to add. Then, samples were spiked with 500 pmol deuterium-labeled NAGly (d8NAGly; Cayman Chemical, Ann Arbor, MI, United States). Samples were placed on ice in darkness for 2 h then individually homogenized and centrifuged at 19,000 × g for 20 min at 20°C. Supernatants were diluted with HPLC water (purified in house) to make a solution of 75% water, 25% supernatant. Lipids were partially purified on C18 solid phase extraction columns (Agilent, Palo Alto, CA, United States). A series of four elutions with 1.5 mL of 60%, 75%, 85%, and 100% methanol were collected ([Stuart et al., 2013]; [Leishman et al., 2016a],[b], [2018]).
As previously described ([Bradshaw et al., 2006]; [Tan et al., 2006]; [Smoum et al., 2010]; [Stuart et al., 2013]; [Tortoriello et al., 2013]; [Raboune et al., 2014]; [Leishman et al., 2016a],[b], [2017], [2018]), samples were analyzed using an Applied Biosystems API 3000 triple quadrupole mass spectrometer with electrospray ionization (Foster City, CA, United States). Using an Agilent XDB-C18 reversed phase analytical column and optimized mobile phase gradients, 20 μL from each elution were chromatographed. Two Shimadzu 10ADvp pumps (Columbia, MD, United States) provided the pressure for gradient elution. Mobile phase A: 20% methanol, 80% water (v/v) and 1 mM ammonium acetate (Sigma, St. Louis, MO, United States). Mobile phase B: 100% methanol, 1 mM ammonium acetate. Every method run began with 0% mobile phase B, reached 100% mobile phase B flowing at 0.2 mL/min, and gradually returned to 0% mobile phase B.
This screening library will be referred to as the lipidome when discussing data from this study. HPLC/MS/MS data were analyzed using Analyst software (Applied Biosystems) ([Bradshaw et al., 2006]; [Tan et al., 2006]; [Stuart et al., 2013]; [Tortoriello et al., 2013]; [Raboune et al., 2014]; [Leishman et al., 2016a],[b], [2017], [2018]). Chromatograms (Supplementary Figure 3) were generated by determining the retention time of analytes from the analytical column with a [M-1] or [M+1] parent peak and a fragmentation peak corresponding to the programmed values. […]

## CCCCCCC(C)(C)c1ccc([C@@H]2C[C@H](O)CC[C@H]2CCCO)c(O)c1 [CP 55,940]
PND 35 STR
  PGF2α level vs vehicle: ↑ (1-1.49 times higher than vehicle)
PND 35 THAL
  2-linoleoyl glycerol level vs vehicle: ↓ (1-1.49 times lower than vehicle)
  6-ketoPGF1α level vs vehicle: ↓ (1-1.49 times lower than vehicle)
  N- stearoyl valine level vs vehicle: ↑ (1-1.49 times higher than vehicle)
  N-arachidonoyl GABA level vs vehicle: ↓ (1-1.49 times lower than vehicle)
  N-arachidonoyl alanine level vs vehicle: ↓ (1-1.49 times lower than vehicle)
  N-arachidonoyl ethanolamine level vs vehicle: ↑ (1-1.49 times higher than vehicle)
  N-arachidonoyl glycine level vs vehicle: ↓ (1-1.49 times lower than vehicle)
  N-arachidonoyl phenylalanine level vs vehicle: ↑ (1-1.49 times higher than vehicle)
  N-arachidonoyl serine level vs vehicle: ↓ (1-1.49 times lower than vehicle)
  N-arachidonoyl taurine level vs vehicle: ↓ (1-1.49 times lower than vehicle)
  N-docosahexaenoyl GABA level vs vehicle: ↓ (1-1.49 times lower than vehicle)
  N-docosahexaenoyl alanine level vs vehicle: ↓ (1-1.49 times lower than vehicle)
  N-docosahexaenoyl glycine level vs vehicle: ↓ (1-1.49 times lower than vehicle)
  N-docosahexaenoyl leucine level vs vehicle: ↑↑ (1.50-1.99 times higher than vehicle)
  N-docosahexaenoyl phenylalanine level vs vehicle: ↑ (1-1.49 times higher than vehicle)
  N-linoleoyl ethanolamine level vs vehicle: ↑ (1-1.49 times higher than vehicle)
  N-oleoyl GABA level vs vehicle: ↓ (1-1.49 times lower than vehicle)
  N-oleoyl alanine level vs vehicle: ↓ (1-1.49 times lower than vehicle)
  N-oleoyl glycine level vs vehicle: ↓ (1-1.49 times lower than vehicle)
  N-oleoyl leucine level vs vehicle: ↑ (1-1.49 times higher than vehicle)
  N-oleoyl valine level vs vehicle: ↑ (1-1.49 times higher than vehicle)
  N-palmitoyl GABA level vs vehicle: ↑ (1-1.49 times higher than vehicle)
  N-palmitoyl leucine level vs vehicle: ↑ (1-1.49 times higher than vehicle)
  N-palmitoyl phenylalanine level vs vehicle: ↑ (1-1.49 times higher than vehicle)
  N-palmitoyl tyrosine level vs vehicle: ↑ (1-1.49 times higher than vehicle)
  N-palmitoyl valine level vs vehicle: ↑↑ (1.50-1.99 times higher than vehicle)
  N-stearoyl serine level vs vehicle: ↓ (1-1.49 times lower than vehicle)
  N-stearoyl tyrosine level vs vehicle: ↓ (1-1.49 times lower than vehicle)
  PGE2 level vs vehicle: ↑ (1-1.49 times higher than vehicle)
  phosphoLEA level vs vehicle: ↑ (1-1.49 times higher than vehicle)
PND 35 brain
  changes in NAEs: 17
  changes in PG levels: 15
  changes in lipoamines derived from AA: 50
  decreases in 2-acyl glycerol levels: 15
  decreases in PG levels: 5
  decreases in free fatty acid levels: Eight
  increases in PG levels: 10
PND 35 brain, 529 detected
  percentage of detected lipids modified with acute CP: 43.67%
PND 35 hypothalamus
  2-arachidonoyl glycerol, Direction (relative to Veh): ↓
  2-arachidonoyl glycerol, Magnitude (x Veh level): 0.39 x Veh level
  2-linoleoyl glycerol Direction (relative to Veh): ↓
  2-linoleoyl glycerol Magnitude (x Veh level): 0.63 x Veh level
  2-oleoyl glycerol, Direction (relative to Veh): ↓
  2-oleoyl glycerol, Magnitude (x Veh level): 0.55 x Veh level
  2-palmitoyl glycerol, Direction (relative to Veh): ↑
  2-palmitoyl glycerol, Magnitude (x Veh level): 1.29 x Veh level
  Arachidonic acid, Direction (relative to Veh): ↓
  Arachidonic acid, Magnitude (x Veh level): 0.85 x Veh level
  Linoleic acid, Direction (relative to Veh): ↓
  Linoleic acid, Magnitude (x Veh level): 0.75 x Veh level
  N-arachidonoyl GABA Direction (relative to Veh): ↓
  N-arachidonoyl GABA Magnitude (x Veh level): 0.74 x Veh level
  N-arachidonoyl alanine Magnitude (x Veh level): 0.55 x Veh level
  N-arachidonoyl alanine, Direction (relative to Veh): ↓
  N-arachidonoyl ethanolamine, Direction (relative to Veh): ↓
  N-arachidonoyl ethanolamine, Magnitude (x Veh level): 0.76 x Veh level
  N-arachidonoyl glycine Direction (relative to Veh): ↓
  N-arachidonoyl glycine Magnitude (x Veh level): 0.70 x Veh level
  N-arachidonoyl phenylalanine, Direction (relative to Veh): ↓
  N-arachidonoyl phenylalanine, Magnitude (x Veh level): 0.86 x Veh level
  N-arachidonoyl taurine Direction (relative to Veh): ↓
  N-arachidonoyl taurine Magnitude (x Veh level): 0.70 x Veh level
  N-docosahexaenoyl GABA Direction (relative to Veh): ↓
  N-docosahexaenoyl GABA Magnitude (x Veh level): 0.68 x Veh level
  N-docosahexaenoyl ethanolamine, Direction (relative to Veh): ↓
  N-docosahexaenoyl ethanolamine, Magnitude (x Veh level): 0.59 x Veh level
  N-linoleoyl alanine direction (relative to Veh): ↓
  N-linoleoyl alanine magnitude (x Veh level): 0.77 x Veh level
  N-oleoyl GABA Magnitude (x Veh level): 0.87 x Veh level
  N-oleoyl GABA direction (relative to Veh): ↓
  N-oleoyl alanine Magnitude (x Veh level): 0.84 x Veh level
  N-oleoyl alanine direction (relative to Veh): ↓
  N-oleoyl ethanolamine, Direction (relative to Veh): ↓
  N-oleoyl ethanolamine, Magnitude (x Veh level): 0.65 x Veh level
  N-palmitoyl ethanolamine, Direction (relative to Veh): ↓
  N-palmitoyl ethanolamine, Magnitude (x Veh level): 0.66 x Veh level
  N-palmitoyl leucine, Direction (relative to Veh): ↑
  N-palmitoyl leucine, Magnitude (x Veh level): 1.30 x Veh level
  N-stearoyl ethanolamine direction (relative to Veh): ↓
  N-stearoyl ethanolamine magnitude (x Veh level): 0.73 x Veh level
  Oleic acid, Direction (relative to Veh): ↓
  Oleic acid, Magnitude (x Veh level): 0.72 x Veh level
  PGE2 Direction (relative to Veh): ↓
  PGE2 Magnitude (x Veh level): 0.78 x Veh level
  PGF2α Direction (relative to Veh): ↑
  PGF2α Magnitude (x Veh level): 1.27 x Veh level
  phoshoLEA direction (relative to Veh): ↑
  phoshoLEA magnitude (x Veh level): 1.47 x Veh level
PND 35 midbrain, 3mg/kg
  2-linoleoyl glycerol: Magnitude (x Veh level): 0.76 x Veh level
  6-ketoPGF1α: Magnitude (x Veh level): 0.86 x Veh level
  Arachidonic acid: Magnitude (x Veh level): 0.88 x Veh level
  N-arachidonoyl GABA: Magnitude (x Veh level): 0.69 x Veh level
  N-arachidonoyl alanine: Magnitude (x Veh level): 0.79 x Veh level
  N-arachidonoyl glycine: Magnitude (x Veh level): 0.89 x Veh level
  N-arachidonoyl serine: Magnitude (x Veh level): 0.82 x Veh level
  N-arachidonoyl taurine: Magnitude (x Veh level): 0.87 x Veh level
  N-arachidonoyl tyrosine: Magnitude (x Veh level): 0.81 x Veh level
  N-docosahexaenoyl GABA: Magnitude (x Veh level): 0.72 x Veh level
  N-docosahexaenoyl alanine: Magnitude (x Veh level): 0.82 x Veh level
  N-docosahexaenoyl glycine: Magnitude (x Veh level): 0.88 x Veh level
  N-docosahexaenoyl leucine: Magnitude (x Veh level): 1.40 x Veh level
